Results from US20260124222A1, “ISOTHIAZOLYLCARBOXAMIDE COMPOUNDS AND THEIR USE IN THERAPY” (HOTSPOT THERAPEUTICS, INC., priority 2022, published 2026).

Biological target: T1, Avi-tagged FL MALT-1 (Homo sapiens, UniProt Q9UDY8)
T1 construct: Avi-tagged FL MALT-1 (Pharmaron, stored at −70° C.); Avi-tag; purchased Pharmaron
T1 sequence (Q9UDY8 1-824): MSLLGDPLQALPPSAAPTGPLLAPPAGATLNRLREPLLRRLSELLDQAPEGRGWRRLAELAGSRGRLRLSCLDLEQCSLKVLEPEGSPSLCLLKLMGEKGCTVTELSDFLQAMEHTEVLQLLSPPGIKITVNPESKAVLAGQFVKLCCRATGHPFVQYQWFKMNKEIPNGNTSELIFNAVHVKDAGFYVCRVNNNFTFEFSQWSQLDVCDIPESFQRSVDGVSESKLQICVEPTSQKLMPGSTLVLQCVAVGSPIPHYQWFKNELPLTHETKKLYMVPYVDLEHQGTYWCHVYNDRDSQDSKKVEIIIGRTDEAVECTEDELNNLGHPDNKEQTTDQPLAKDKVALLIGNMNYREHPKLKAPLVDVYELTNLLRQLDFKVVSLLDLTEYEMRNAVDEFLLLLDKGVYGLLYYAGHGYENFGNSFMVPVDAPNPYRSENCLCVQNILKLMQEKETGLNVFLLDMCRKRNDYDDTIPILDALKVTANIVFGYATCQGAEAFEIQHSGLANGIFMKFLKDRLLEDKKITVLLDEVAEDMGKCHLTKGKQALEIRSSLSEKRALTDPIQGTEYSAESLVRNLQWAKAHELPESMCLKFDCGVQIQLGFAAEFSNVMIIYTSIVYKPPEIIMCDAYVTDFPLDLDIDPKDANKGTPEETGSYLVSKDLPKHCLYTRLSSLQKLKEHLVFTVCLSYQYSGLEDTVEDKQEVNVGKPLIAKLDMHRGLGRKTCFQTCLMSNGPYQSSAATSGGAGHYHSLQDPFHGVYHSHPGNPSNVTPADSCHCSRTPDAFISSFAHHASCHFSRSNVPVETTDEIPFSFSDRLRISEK
Test: MALT-1 Fluorogenic Peptide Cleavage Assay (MALT1 inhibition assay)
Type: biochemical
Conditions: Ac-LRSR-AMC peptide substrate; 30 min pre-incubation, 90 min reaction at room temperature; fluorescence
Protocol: Inhibition of MALT1 activity by a small molecule was evaluated using MALT-1 Fluorogenic Peptide Cleavage Assay. The assay utilizes a quenched AMC-labelled peptide that contains the MALT-1 recognition sequence and cleavage site (LRSR). MALT-1 mediated cleavage of the peptide relieves the quenching and leads to an increase in fluorescence at excitation (342 nm) and emission (441 nm).
The following reagents were obtained commercially and used to prepare standard reagent formulations as further described below: N-2-hydroxyethylpiperazine-N-2-ethane sulfonic acid (HEPES) (1 M, pH 7.5, stored at 4° C.), sodium citrate (stored at RT), tris(2-carboxyethyl)phosphine hydrochloride (T-CEP) (500 mM, stored at −20° C.), ethylenediaminetetraacetic acid (EDTA) (500 mM, stored at RT), dimethylsulfoxide (DMSO, stored at RT), 3-[(3-cholamidopropyl)dimethylammonio]-1-propane sulphate (CHAPS) (stored at RT), dimethylsulfoxide (DMSO), DMSO (Fisher Scientific, stored at RT), Avi-tagged FL MALT-1 (Pharmaron, stored at −70° C.), Ac-LRSR-AMC Peptide (SM Biochemicals, stored at −20° C.), and ultrapure water (MILLI-Q®).
The standard reagent formulations used in this assay were prepared and stored as follows. A 1.1 M solution of sodium citrate (161.3 g, 500 mL) was prepared and stored at room temperature. A 10% (w/v) CHAPS solution (2.0 g, 20 mL) was prepared and stored at 4° C. A 500 mM HEPES solution having pH of 6.89 was prepared from 200 mL of a 1 M HEPES solution having a pH of 7.5 using concentrated hydrochloric acid and brought to a final volume of 400 mL with MILLI-Q© H2O. The substrate, 10 mM Ac-LRSR-AMC Peptide, was prepared (10 mg, 1.370 mL DMSO) and stored at −20° C.
Compounds were plated to provide a 2% DMSO final concentration using a ProxiPlate-384 Plus F Black 384-shallow well microplate. The assay-ready plates were equilibrated to room temperature. A reaction buffer (30 mL total volume) was prepared by combining HEPES (pH 6.89, 25 mM, 1.5 mL), sodium citrate (660 mM, 18.0 mL), T-CEP (1 mM, 0.06 mL), EDTA (0.1 mM, 0.06 mL), CHAPS (0.05%, 0.15 mL), DMSO (2%, 0.6 mL), and MILLI-Q® H2O (10.23 mL; 9.63 mL when backfilled to 2% DMSO) followed by thorough mixing.
MALT-1 was thawed and kept on ice. Peptide substrate was thawed on the bench under ambient conditions. A MALT-1 enzyme working stock was prepared from Avi-tagged FL MALT-1 (40 nM in a prepared reagent volume of […]) and the reaction buffer (13.0 mL). MALT1 working stock (5 μL) was added to each well of the microplate. MALT-1 was pre-incubated with compounds for 30 minutes at room temperature.
Two substrate working stocks (Km and 10×Km) were prepared. The 1×Km substrate was prepared from Ac-LRSR-AMC Peptide (50 μM in a prepared reagent volume of […]) and the reaction buffer (6.965 mL). The 10×Km substrate was prepared from Ac-LRSR-AMC Peptide ([…] in a prepared reagent volume of 196.0 μL) and the reaction buffer (6.804 mL). The reaction was initiated by the addition of substrate working stock (5 μL, 50 μM) to Km plates and the addition of substrate working stock (5 μL 280 μM) to 10×Km plates. The plates were covered and incubated on the bench at room temperature for 90 minutes.
Fluorescence intensity was determined using a CLARIOstar microplate reader (BMG LABTECH) using the optimised AMC mode. Before taking readings, a 70% gain was applied on the neutral control well. Compound data were normalised to % Inhibition and used to plot sigmoidal concentration response curves to yield various parameters including IC50.

| Compound | IC50 [nM] |
| --- | --- |
| O=C(Nc1cnc(-n2nccn2)c(Cl)c1)c1snc(-c2ccccc2)c1I [I-1, N-(5-CHLORO-6-(2H-1,2,3-TRIAZOL-2-YL)PYRIDIN-3-YL)-4-IODO-3-PHENYLISOTHIAZOLE-5-CARBOXAMIDE] | ≤ 400 |
| O=C(Nc1cnc(-n2nccn2)c(Cl)c1)c1cc(-c2ccccc2)ns1 [I-2, N-(5-CHLORO-6-(2H-1,2,3-TRIAZOL-2-YL)PYRIDIN-3-YL)-3-PHENYLISOTHIAZOLE-5-CARBOXAMIDE] | 1000 to 2500 |
| Cc1c(-c2ccccc2)nsc1C(=O)Nc1cnc(-n2nccn2)c(Cl)c1 [I-3, N-(5-CHLORO-6-(2H-1,2,3-TRIAZOL-2-YL)PYRIDIN-3-YL)-4-METHYL-3-PHENYLISOTHIAZOLE-5-CARBOXAMIDE] | ≤ 400 |
| N#Cc1c(-c2ccccc2)nsc1C(=O)Nc1cnc(-n2nccn2)c(Cl)c1 [I-4, N-(5-CHLORO-6-(2H-1,2,3-TRIAZOL-2-YL)PYRIDIN-3-YL)-4-CYANO-3-PHENYLISOTHIAZOLE-5-CARBOXAMIDE] | 400 to 1000 |
| CC(C)c1c(-c2ccccc2)nsc1C(=O)Nc1cnc(-n2nccn2)c(Cl)c1 [I-5, N-(5-CHLORO-6-(2H-1,2,3-TRIAZOL-2-YL) PYRIDIN-3-YL)-4-ISOPROPYL-3-PHENYLISOTHIAZOLE-5-CARBOXAMIDE] | ≤ 400 |
| O=C(Nc1cnc(-n2nccn2)c(Cl)c1)c1snc(-c2ccccc2)c1C1CC1 [I-6, N-(5-CHLORO-6-(2H-1,2,3-TRIAZOL-2-YL) PYRIDIN-3-YL)-4-CYCLOPROPYL-3-PHENYLISOTHIAZOLE-5-CARBOXAMIDE] | ≤ 400 |
| O=C(Nc1cnc(-n2nccn2)c(Cl)c1)c1snc(-c2ccccc2)c1C(F)(F)F [I-7, N-(5-CHLORO-6-(2H-1,2,3-TRIAZOL-2-YL) PYRIDIN-3-YL)-3-PHENYL-4-(TRIFLUOROMETHYL)ISOTHIAZOLE-5-CARBOXAMIDE] | ≤ 400 |
| N#Cc1cc(NC(=O)c2snc(-c3ccccc3)c2C(F)(F)F)cnc1-n1nccn1 [I-8, N-(5-CYANO-6-(2H-1,2,3-TRIAZOL-2-YL)PYRIDIN-3-YL)-3-PHENYL-4-(TRIFLUOROMETHYL)ISOTHIAZOLE-5-CARBOXAMIDE] | ≤ 400 |
| N#Cc1cc(NC(=O)c2snc(-c3ccccc3)c2C2CC2)cnc1-n1nccn1 [I-9, N-(5-CYANO-6-(2H-1,2,3-TRIAZOL-2-YL) PYRIDIN-3-YL)-4-CYCLOPROPYL-3-PHENYLISOTHIAZOLE-5-CARBOXAMIDE] | ≤ 400 |
| C=Cc1c(-c2ccccc2)nsc1C(=O)Nc1cnc(-n2nccn2)c(Cl)c1 [I-10, N-(5-CHLORO-6-(2H-1,2,3-TRIAZOL-2-YL) PYRIDIN-3-YL)-4-VINYL-3-PHENYLISOTHIAZOLE-5-CARBOXAMIDE] | ≤ 400 |
| CCc1c(-c2ccccc2)nsc1C(=O)Nc1cnc(-n2nccn2)c(Cl)c1 [I-11, N-(5-CHLORO-6-(2H-1,2,3-TRIAZOL-2-YL) PYRIDIN-3-YL)-4-ETHYL-3-PHENYLISOTHIAZOLE-5-CARBOXAMIDE] | ≤ 400 |
| Cc1cc(NC(=O)c2snc(-c3ccccc3)c2C2CC2)cnc1-n1nccn1 [I-12, 4-CYCLOPROPYL-N-(5-METHYL-6-(2H-1,2,3-TRIAZOL-2-YL)PYRIDIN-3-YL)-3-PHENYLISOTHIAZOLE-5-CARBOXAMIDE] | ≤ 400 |
| O=C(Nc1cnc(-n2nccn2)c(C(F)F)c1)c1snc(-c2ccccc2)c1C1CC1 [I-13, 4-CYCLOPROPYL-N-(5-(DIFLUOROMETHYL)-6-(2H-1,2,3-TRIAZOL-2-YL)PYRIDIN-3-YL)-3-PHENYLISOTHIAZOLE-5-CARBOXAMIDE] | ≤ 400 |
| O=C(Nc1cnc(-n2nccn2)c(C(F)(F)F)c1)c1snc(-c2ccccc2)c1C1CC1 [I-14, 4-CYCLOPROPYL-N-(5-(TRIFLUOROMETHYL)-6-(2H-1,2,3-TRIAZOL-2-YL)PYRIDIN-3-YL)-3-PHENYLISOTHIAZOLE-5-CARBOXAMIDE] | ≤ 400 |
| O=C(Nc1ccnc(C(F)(F)F)c1)c1snc(-c2ccccc2)c1C(F)(F)F [I-15, 3-PHENYL-4-(TRIFLUOROMETHYL)-N-(2-(TRIFLUOROMETHYL)PYRIDIN-4-YL)ISOTHIAZOLE-5-CARBOXAMIDE] | ≤ 400 |
| O=C(Nc1ccc(C(=O)N2CC(O)C2)c(Cl)c1)c1snc(-c2ccccc2)c1C(F)(F)F [I-16, N-(3-CHLORO-4-(3-HYDROXYAZETIDINE-1-CARBONYL)PHENYL)-3-PHENYL-4-(TRIFLUOROMETHYL)ISOTHIAZOLE-5-CARBOXAMIDE] | ≤ 400 |
| O=C(Nc1ccc(C(=O)N2CC(O)C2)c(Cl)c1)c1snc(-c2ccccc2)c1C1CC1 [I-17, N-(3-CHLORO-4-(3-HYDROXYAZETIDINE-1-CARBONYL)PHENYL)-3-PHENYL-4—(CYCLOPROPYL)ISOTHIAZOLE-5-CARBOXAMIDE] | ≤ 400 |
| CN(C(=O)c1snc(-c2ccccc2)c1C(F)(F)F)c1cnc(-n2nccn2)c(Cl)c1 [I-18, N-(5-CHLORO-6-(2H-1,2,3-TRIAZOL-2-YL) PYRIDIN-3-YL)-N-METHYL-3-PHENYL-4-(TRIFLUOROMETHYL)ISOTHIAZOLE-5-CARBOXAMIDE] | ≤ 400 |
| O=C(Nc1cnc(-n2nccn2)c(Cl)c1)c1snc(-c2ncccc2Cl)c1C(F)(F)F [I-19, N-(5-CHLORO-6-(2H-1,2,3-TRIAZOL-2-YL) PYRIDIN-3-YL)-3-(3-CHLOROPYRIDIN-2-YL)-4-(TRIFLUOROMETHYL) ISOTHIAZOLE-5-CARBOXAMIDE] | ≤ 400 |
| N#Cc1cc(NC(=O)c2snc(-c3ncccc3Cl)c2C(F)(F)F)cnc1-n1nccn1 [I-20, 3-(3-CHLOROPYRIDIN-2-YL)-N-(5-CYANO-6-(2H-1,2,3-TRIAZOL-2-YL)PYRIDIN-3-YL)-4-(TRIFLUOROMETHYL)ISOTHIAZOLE-5-CARBOXAMIDE] | ≤ 400 |
| CN(C)C(=O)c1ccc(NC(=O)c2snc(-c3ccccc3)c2C2CC2)cc1Cl [I-21, N-(3-CHLORO-4-(DIMETHYLCARBAMOYL) PHENYL)-4-CYCLOPROPYL-3-PHENYLISOTHIAZOLE-5-CARBOXAMIDE] | ≤ 400 |
| O=C(Nc1ccc(C(=O)N2CCOCC2)c(Cl)c1)c1snc(-c2ccccc2)c1C1CC1 [I-22, N-(3-CHLORO-4-(MORPHOLINE-4-CARBONYL) PHENYL)-4-CYCLOPROPYL-3-PHENYLISOTHIAZOLE-5-CARBOXAMIDE] | ≤ 400 |
| CNC(=O)c1ccc(NC(=O)c2snc(-c3ccccc3)c2C2CC2)cc1Cl [I-23, N-(3-CHLORO-4-(METHYLCARBAMOYL) PHENYL)-4-CYCLOPROPYL-3-PHENYLISOTHIAZOLE-5-CARBOXAMIDE] | ≤ 400 |
